The values below come from patent US20210040151A1, “MICROMOLECULE POLYPEPTIDE AND USE THEREOF” (NANFANG HOSPITAL OF SOUTHERN MEDICAL UNIVERSITY, priority 2019, published 2021).

Entries after “also recorded” stand apart in the source; their conditions may differ.

One test concerns UUO mice. As to the kind of experiment: Kidney fibrosis in UUO (unilateral ureter ligation) mouse model: sirus scarlet staining, fibronectin immunostaining, western blot. Format: in vivo, BALB/C mice. How it is done: (§1) BALB/C mice, male and female, a weight ranging from 20 g to 22 g, and a SPF grade.
(§2) The animals were weighed and numbered. 18 healthy mice with a weight ranging from 20 g to 22 g were selected and randomly divided into 3 groups, with 6 mice in each group, including a sham operation group, a model group and an administration group.
(§3) 1) Sham operation group: at a room temperature, after mice were anaesthetized with 3% pentobarbital sodium at 1 ml/kg body weight, a left abdomen part of 2 cm to 3 cm was selected as an incision; and skin, a subcutaneous layer, a muscular layer and a peritoneum were cut layer by layer after local disinfection, and then were sutured layer by layer immediately after finding a left ureter. After local disinfection, the mice were verified and marked, and then placed in a corresponding mouse cage.
(§4) 2) Model control group: anesthetization and disinfection were performed same as the sham operation group. Skin, a subcutaneous layer, a muscular layer and a peritoneum were cut layer by layer, and then were sutured layer by layer after finding a left ureter and performing a ligation at an upper ⅓ segment of the ureter. After local disinfection, the mice were verified and marked, and then placed in a corresponding mouse cage.
(§5) 3) Administration group: anesthetization and disinfection were performed same as sham operation group. Skin, a subcutaneous layer, a muscular layer and a peritoneum were cut layer by layer, and then were sutured layer by layer after finding a left ureter and performing a ligation at an upper ⅓ segment of the ureter. After local disinfection, the mice were verified and marked, and then placed in a corresponding mouse cage.
KP-6T or KP-6 water soluble powder was diluted with sterile 0.01 Mol glacial acetic acid solution to a storage concentration of 10 mg/ml. The mice of each experimental group were raised in different cages. The sham operation group was only observed. The model control group was only given 0.01 Mol glacial acetic acid solution by tail vein injection. The administration group was given glacial acetic acid solution containing KP-6T or KP-6 of 0.5 mg/kg of body weight by tail vein injection on the 1st or 5th day after UUO operation for 6 consecutive days. The mice in each group were euthanized after 7 days or 11 days of raising, left kidneys were taken, and then tissues were respectively fixed with 10% neutral formaldehyde and frozen with liquid nitrogen. The formaldehyde-fixed tissues were dehydrated, embedded, sliced and flaked, and then subjected to sirus scarlet staining and fibronectin immumohistochemical staining respectively. A protein was extracted after homogenization of the frozen tissues, and a fibrosis index, and expression levels of an active-β-catenin and a target gene thereof were detected by western blot.
1) A degree of kidney tissue fibrosis was detected by sirus scarlet staining.

A further test relates to β-catenin signal pathway. As to the kind of experiment: β-catenin signal pathway in kidney tissue of UUO mice: western blot, mRNA of target genes. Format: in vivo, BALB/C mice. How it is done: as §1, §2, §3, §4, §5
KP-6T or KP-6 water soluble powder was diluted with sterile 0.01 Mol glacial acetic acid solution to a storage concentration of 10 mg/ml. The mice of each experimental group were raised in different cages. […] A protein was extracted after homogenization of the frozen tissues, and a fibrosis index, and expression levels of an active-β-catenin and a target gene thereof were detected by western blot.
On the technique in general: In western blotting, separated proteins are transferred to a membrane and probed.

The mark [1] stands for this setting: UUO mice, 0.5 mg/kg tail vein injection for 6 days from 1st or 5th day after UUO, vs model control group (FIG. 2 and FIG. 5).
Setting [2] is: advanced UUO mouse, administration from 5th day after UUO, 0.5 mg/kg tail vein, vs model group (FIG. 7).
Setting [3] is: advanced UUO mouse, administration from 5th day after UUO, 0.5 mg/kg tail vein, vs model group (FIG. 7), 0.5 mg/kg.
Where [4] appears, read: UUO mice, 0.5 mg/kg tail vein injection for 6 days from 1st or 5th day after UUO, vs model control group (FIG. 3 and FIG. 6).

With “LQDAYGGWANR (Synthesized by Nanjing Genscript Biotechnology Co. Ltd.) [KP-6T]”, the “collagen deposition in renal interstitium (sirus scarlet staining)” value in the test with UUO mice (UUO mice, 0.5 mg/kg tail vein injection for 6 consecutive days from 1st or 5th day after UUO, vs model control group (FIG. 1 and FIG. 4)) is reported as “significantly lower”. For the same sequence, in the test on UUO mice (setting [1]), the “level of fibronectin in kidneys” value is recorded as “significantly reduced” and the “level of smooth muscle actin α (α-SMA) in kidneys” value is listed as “significantly reduced”. For the same sequence, in the test on UUO mice (administered the 5th day after UUO), the “collagen deposition in the renal interstitium” value was “significantly inhibit”. Also, in the test with UUO mice (setting [2]), the “deposition of extracellular matrix in renal interstitium” value is given as “significantly reduced” and the “protein Klotho expressed by healthy kidney tubular epithelial cells” value is “recovered”. Moreover, in the test with UUO mice (setting [3]), the “level of fibronectin in kidneys” value is “significantly reduced; also recorded: significantly inhibit” and the “level of smooth muscle actin α (α-SMA) in kidneys” value is “significantly reduced; also recorded: significantly inhibit”. Also, in the test on β-catenin signal pathway (setting [4]), the “expression level of downstream target gene of β-catenin (PAI-1, Snail-1, MMP7 mRNA) in kidneys” value is reported as “significantly reduced” and the “expression level of β-catenin protein in kidneys” value was “significantly reduced”. In addition, in the test on β-catenin signal pathway (setting [2]), the “Wnt signal pathway (active-β-catenin)” value is given as “inhibited”.
